We go through 1 compound from patent US7404943B2, “Methods for solubilizing and recovering fluorinated compounds” (The Regents of the University of California, priority 2001, dated 2008).

The nature of the series: Visual observation of solubility in organic solvent with and without CO2 pressure (windowed vessel). Type of series: physicochemical. The following applies: 35° C.; for solubility in cyclohexane / solubility in CO2-expanded cyclohexane: 64 mg in 5 mL cyclohexane; for solubility in cyclohexane: 1 atm CO2, visual; for solubility in CO2-expanded cyclohexane: CO2 pressure 59 bar. The method, then: The bis(methanol) adduct of complex 2 (Rh2(O2C(CF2)9F)4(MeOH)2, 64 mg) was placed in a windowed vessel along with a stir bar and 5 mL of cyclohexane, all at 35° C. […] The CO2 under these conditions is not supercritical and in the absence of the cyclohexane would not be liquid. […] When the CO2 pressure was released (slowly, so that the solvent was not lost by entrainment), then the liquid phase returned to its original volume and colour and the complex precipitated. The IR spectrum of the solid was identical to that of the original Rh2(O2C(CF2)9F)4(MeOH)2.
The IR spectrum of the complex after precipitation is identical to that of the starting material. […] For example, complex 3 was insoluble in toluene at 26° C., dissolved in CO2-expanded toluene at 54 bar CO2 and was subsequently precipitated after CO2 release.

The mark [1] stands for this setting: listed as Rh2(O2C(CF2)9F)4(MeOH)2.

SMILES strings stand for the structures.

As for `CO.CO.O=C([O-])C(F)(F)C(F)(F)C(F)(F)C(F)(F)C(F)(F)C(F)(F)C(F)(F)C(F)(F)C(F)(F)F.O=C([O-])C(F)(F)C(F)(F)C(F)(F)C(F)(F)C(F)(F)C(F)(F)C(F)(F)C(F)(F)C(F)(F)F.O=C([O-])C(F)(F)C(F)(F)C(F)(F)C(F)(F)C(F)(F)C(F)(F)C(F)(F)C(F)(F)C(F)(F)F.O=C([O-])C(F)(F)C(F)(F)C(F)(F)C(F)(F)C(F)(F)C(F)(F)C(F)(F)C(F)(F)C(F)(F)F.[Rh+3].[Rh+3]` [bis(methanol) adduct of complex 2, Rh2(O2C(CF2)9F)4(MeOH)2], the solubility in cyclohexane result is reported as “completely insoluble” and the “solubility in CO2-expanded cyclohexane” value is “complete dissolution”. For the same compound, under setting [1], the solubility in cyclohexane result is given as “insoluble” and the “solubility in CO2-expanded cyclohexane” value is “dissolves readily”. Also, the “solubility in gaseous CO2 (upper phase)” value (59 bar CO2, upper gaseous phase showed no discoloration) is recorded as “no solubility”.
